Experimental data published in patent US20110230472A1, “RING-FUSED AZOLE DERIVATIVE HAVING PI3K-INHIBITING ACTIVITY” (Shionogi & Co., Ltd., priority 2008, published 2011).

How the values were obtained:
PI-3 kinase γ [1] = target: T1, PI-3 kinase γ (Homo sapiens, UniProt P48736); assay: PI3Kγ inhibitory activity, PI3-kinase HTRF assay (inhibition ratio); assay type: biochemical; settings: 0.5 h
How it was run: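 PI3Kγ preincubated 10 min with compound and PIP2 substrate (MgCl2, DTT), then ATP added for 30 min at room temperature. PIP3 detected by HTRF (665/620 nm ratio) after 18 h. Inhibition ratio at 50 or 10 μmol/L, normalised to no-compound and no-enzyme controls.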

[2] = system: AKT phosphorylation in human monocyte-like cell line THP-1; assay: AKT phosphorylation inhibitory activity in MCP-1-stimulated THP-1 cells (ELISA); assay type: cell-based; settings: 1 μmol/L solution of each compound, MCP-1 stimulation, read-out: AKT phosphorylation inhibition ratio
Experimental: (1) The AKT phosphorylation inhibitory activity of a compound was evaluated according to the following procedure. (2) Human monocyte-like cell line THP-1 was washed with RPMI-1640 media, incubated in the presence of 5% CO2 at 37° C. for 3 hours, washed with Hank's balanced salt solution (HBSS), adjusted to a cell concentration of 6.6×10^6/mL, and then used in an experiment. (3) 30 μL of the cell suspension and 60 μL of each compound solution containing 0.2% DMSO/HBSS were mixed and then preincubated at 37° C. for 5 minutes. 30 μL of HBSS containing 4 μg/mL of MCP-1 was added thereto and then incubated for 30 seconds at 37° C. (4) 30 μl of a cell lysate (20 mmol/L Tris-HCl (pH 7.5), 150 mmol/L NaCl, 1 mmol/L Na2EDTA, 1 mmol/L EGTA, 1% Triton, 2.5 mmol/L sodium pyrophosphate, 1 mmol/L β-glycerophosphate, 1 mmol/L Na3VO4, 1 μg/ml leupeptin, 50 nmol/L APMSF) was added thereto to lyse cells. (5) The amount of AKT phosphorylation in the cell lysate was measured by ELISA method. (6) Anti-phospho-Akt (Ser473) antibodies (clone 193H12, derived from a rabbit) were immobilized onto the solid phase of a micro well plate. 100 μL of the prepared cell lysate was added to the micro well plate, incubated for 2 hours at 37° C., and then washed four times with Phosphate Buffered Saline containing 0.05% Tween-20. (7) An anti-AKT1 antibody (clone 2H10, derived from a mouse) was added thereto, incubated for 1 hour at 37° C., washed similarly, and then reacted with an HRP-labeled anti-mouse IgG antibody. (8) After incubating at 37° C. for 30 minutes and then washing similarly, 100 μL of TMB (3,3′,5,5″-tetramethylbenzidine) was added thereto, followed by reacting at room temperature for 30 minutes. (9) 100 μL of 1 mol/L sulfuric acid was added to quench the color reaction and then the absorbance at 450 nm was measured. (10) A series of diluted cell lysates of a positive control (a sample in the absence of a compound) were used to prepare a calibration curve, the amount of AKT phosphorylation in a sample in the absence of MCP-1 was defined as 0% activity to calculate an inhibition ratio. The measurement was performed for a 1 μmol/L solution of each compound.

PI-3 kinase γ [3] = target: T1, PI-3 kinase γ; assay: PI3Kγ inhibitory activity (Ki value), HTRF; assay type: biochemical; settings: Ki=IC50/(1+10 μM ATP/Km)
Experimental: The PI3Kγ inhibitory activity (Ki value) of a compound was evaluated according to the following procedure:
5 μL of a compound solution containing 10% DMSO and 200 μmol/L of a compound was changed to 5 μL of a compound solution containing 10% DMSO and either 200, 64, 20, 6.4, 2, 0.64, or 0.20 μmol/L of the compound (optionally, this is diluted to a lower concentration). Using a method similar to the method for measuring PI3Kγ inhibitory activity, inhibition ratios were measured in the presence of the compound at 50, 16, 5, 1.6, 0.5, 0.16, and 0.05 μmol/L (optionally, a lower concentration). Then an IC50 value was calculated by a logistic approximation method or the linear regression method using two concentrations that across 50% inhibition. Separately, the ATP concentration in the reaction solution (40 μmol/L ATP, 10 mmol/L MgCl2, 5 mmol/L DTT) at the time of the start of a reaction in the absence of the compound was changed to 80, 40, 20, 10, 5, 2.5, 1.25, or 0.625 μmol/L. Then, HTRF ratios were measured by a similar method. The value obtained by subtracting the HTRF ratio at each ATP concentration from the HTRF ratio in the absence of PI-3 kinase γ was defined as the value obtained by multiplying reaction rate (v) at each ATP concentration with a constant. The Michaelis-Menten constant Km was then calculated by the Lineweaver-Burk plot method. The Ki value of a compound was calculated by the following formula.
Ki=IC50 value/(1+10 μM (test ATP concentration)/Km (μM))

[4] = system: Salmonella typhimurium TA98 line, TA100 line; assay: FAT test (mutagenicity); parameters: key: When the mutagenicity is negative, the compound is shown as (−); When positive, the compound is shown as (+); settings: TA98 and TA100 lines; non-metabolism-activation and metabolism-activation conditions
Experimental: 20 μL of Salmonella enterica subsp. typhimurium (Salmonella typhimurium TA98 line, TA100 line) cryopreserved was inoculated to 10 mL of liquid nutrient medium (2.5% Oxoid nutrient broth No. 2) and then precultured at 37° C. for 10 hours with shaking. Regarding TA98 line, after 9 mL of a bacterial suspension was centrifuged (2000×g, 10 minutes) to remove the culture solution, the bacteria was suspended in 9 mL of Micro F buffer solution (K2HPO4: 3.5 g/L, KH2PO4: 1 g/L, (NH4)2SO4: 1 g/L, tri-sodium citric acid dihydrate: 0.25 g/L, MgSO4.7H2O: 0.1 g/L), and then added to 110 mL of Exposure media (Micro F buffer solution containing biotin: 8 μg/mL, histidine: 0.2 μg/mL, glucose: 8 mg/mL). Regarding TA 100 line, 120 mL of Exposure media was added to 3.16 mL of the bacterial suspension to prepare a test bacterial suspension. 12 μL of a solution of a test substance in DMSO (diluted eight times in a common ratio of 2 from the maximum dose of 50 mg/mL); 12 μL of DMSO as a negative control; 50 μg/mL 4-nitroquinoline-1-oxide solution in DMSO for TA98 line or 0.25 μg/mL 2-(2-furyl)-3-(5-nitro-2-furyl)acrylamide solution in DMSO as a positive control for TA 100 line in the case of a non-metabolism-activation condition; 12 μL of 40 μg/mL 2-aminoanthracene solution in DMSO for TA98 line or 20 μg/mL of 2-aminoanthracene solution in DMSO for TA100 line in the case of a metabolism-activation condition; were each mixed with 588 μL of the test bacterial suspension (in the case of a metabolism activation condition, a mixed solution of 498 μL of the test bacterial suspension and 90 μL S9 mix) and then cultured at 37° C. at 90 minutes with shaking. 460 μL of the bacterial suspension to which a test substance was exposed was mixed with 230 μL of Indicator media (a Micro F buffer solution containing 8 μg/mL biotin, 0.2 μg/mL histidine, 8 mg/mL glucose, and 37.5 μg/mL bromocresol purple). 50 μL thereof was dispensed to microplate 48 wells/dose and then statically cultured at 37° C. for 3 days. In a well containing bacteria which obtained proliferation potency by mutation of the amino acid (histidine) synthetase gene, the change of pH caused the color change from purple to yellow. Thus, in 48 wells per dose, the number of the bacteria-proliferation wells in which the color changed to yellow was counted, compared with a group of negative controls, and then evaluated. When the mutagenicity is negative, the compound is shown as (−). When positive, the compound is shown as (+).

T1 sequence (P48736 whole entry): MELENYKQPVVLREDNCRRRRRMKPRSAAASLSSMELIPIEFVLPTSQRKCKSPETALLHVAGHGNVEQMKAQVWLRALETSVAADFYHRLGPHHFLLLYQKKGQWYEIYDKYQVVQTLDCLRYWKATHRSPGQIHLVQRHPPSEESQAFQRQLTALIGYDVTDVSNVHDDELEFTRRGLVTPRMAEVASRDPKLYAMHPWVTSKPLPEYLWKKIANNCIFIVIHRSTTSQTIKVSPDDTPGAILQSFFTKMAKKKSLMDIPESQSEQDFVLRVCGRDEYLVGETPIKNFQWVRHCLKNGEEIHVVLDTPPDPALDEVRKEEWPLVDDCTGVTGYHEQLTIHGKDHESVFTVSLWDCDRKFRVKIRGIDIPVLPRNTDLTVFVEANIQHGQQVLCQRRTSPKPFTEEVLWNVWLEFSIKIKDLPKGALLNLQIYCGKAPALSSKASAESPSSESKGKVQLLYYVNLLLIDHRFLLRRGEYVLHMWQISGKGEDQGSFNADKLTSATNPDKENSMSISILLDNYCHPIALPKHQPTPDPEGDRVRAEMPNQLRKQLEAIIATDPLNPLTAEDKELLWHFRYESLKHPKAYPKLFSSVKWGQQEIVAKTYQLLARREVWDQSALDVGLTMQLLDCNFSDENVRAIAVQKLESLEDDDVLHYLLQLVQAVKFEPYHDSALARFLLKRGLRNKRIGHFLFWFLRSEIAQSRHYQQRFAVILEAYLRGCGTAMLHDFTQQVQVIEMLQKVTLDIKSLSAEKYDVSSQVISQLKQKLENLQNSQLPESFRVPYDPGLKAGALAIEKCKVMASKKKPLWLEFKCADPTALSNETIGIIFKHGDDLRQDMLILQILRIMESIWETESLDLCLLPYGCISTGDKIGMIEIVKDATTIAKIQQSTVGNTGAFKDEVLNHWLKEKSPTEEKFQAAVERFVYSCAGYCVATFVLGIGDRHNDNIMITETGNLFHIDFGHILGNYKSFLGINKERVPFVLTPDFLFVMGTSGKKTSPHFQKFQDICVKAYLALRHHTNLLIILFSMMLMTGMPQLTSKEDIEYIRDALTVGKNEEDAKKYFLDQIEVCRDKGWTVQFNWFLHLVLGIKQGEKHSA

COc1cc(N2CCc3nc(NC(=O)NCCC(=O)N4CCCCC4)sc3C2)nc(OC)n1 [Compound I-266]
inhibition at 10 µM (PI-3 kinase γ [1]; PI3Kγ, compound at 10 μM): ≥ 95%
inhibition [2]: > 99.5%
Ki (PI-3 kinase γ [3]): 36 nM
mutagenicity (FAT test) [4]: (−)

CC(C)Oc1cc(C(=O)Nc2cc3n(n2)CCN3c2ccc3c(c2)CCN(C)C3=O)on1 [Compound I-403]
inhibition at 10 µM (PI-3 kinase γ [1]; compound at 10 μmol/L): ≥ 95%
mutagenicity (FAT test) [4]: (−)
